Test results reported in patent publication US20210214375A1 (LUNDBECK LA JOLLA RESEARCH CENTER, INC., priority 2017, published 2021).
pIC50: −log10 of the molar value. Read-outs that look alike come from different tables or passages of the source.

Experiments:
MAGL [1] = target: T1, MAGL (Homo sapiens, UniProt Q99685); test: In vitro competitive activity-based protein profiling (gel-based, FP-Rh or HT-01 probe); type: biochemical
T1 construct: Proteomes (human prefrontal cortex or cell membrane fractions); from tissue
T1 sequence (Q99685 1-303): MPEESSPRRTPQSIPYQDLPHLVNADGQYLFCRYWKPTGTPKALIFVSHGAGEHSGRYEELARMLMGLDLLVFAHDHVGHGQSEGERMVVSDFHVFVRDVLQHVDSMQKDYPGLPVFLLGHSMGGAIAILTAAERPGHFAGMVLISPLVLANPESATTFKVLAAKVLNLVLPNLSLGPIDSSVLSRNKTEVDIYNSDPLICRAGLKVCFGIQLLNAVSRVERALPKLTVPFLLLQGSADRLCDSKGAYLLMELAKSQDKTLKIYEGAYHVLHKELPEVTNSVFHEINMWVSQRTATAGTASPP
Outline: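 Readout is SDS-PAGE of probe-labelled proteome after FP-Rh or HT-01 (1.0 μL, 50 μM stock) labelling for 30 min at room temperature. Beforehand, inhibitors at varying concentrations were preincubated 30 min at 37° C with human prefrontal cortex or cell membrane fractions at 1.0 mg/mL total protein.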

MAGL [2] = target: T2, MAGL (Mus musculus, UniProt O35678); test: Mouse brain proteomes from inhibitor treated mice (oral gavage, brain proteomes analyzed 4 h after administration); type: in vivo, mouse (C57Bl/6J); settings: brain proteome 4 h after administration, read-out: % Inh 5 mg/kg MGLL (Mouse)
T2 construct: from tissue; host or cells: brain of wild-type C57Bl/6J mice
T2 sequence (O35678 1-303): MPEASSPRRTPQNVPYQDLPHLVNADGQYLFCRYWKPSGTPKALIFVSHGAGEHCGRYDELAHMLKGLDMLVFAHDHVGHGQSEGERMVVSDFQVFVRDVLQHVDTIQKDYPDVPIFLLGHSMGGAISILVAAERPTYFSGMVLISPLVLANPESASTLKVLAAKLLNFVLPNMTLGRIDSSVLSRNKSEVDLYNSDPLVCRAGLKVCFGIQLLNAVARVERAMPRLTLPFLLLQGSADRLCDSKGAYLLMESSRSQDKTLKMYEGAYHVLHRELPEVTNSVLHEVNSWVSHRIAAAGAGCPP
Outline: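 Wild-type C57Bl/6J mice dosed orally in polyethylene glycol vehicle; brains removed 4 h post-dose and brain proteomes prepared and analysed for MAGL and serine hydrolase activity by previously established methods.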

MGLL = target: T3, MGLL (Mus musculus, UniProt O35678); test: In vitro competitive activity-based protein profiling, mouse brain proteome; type: biochemical
T3 construct: Brain; from tissue; host or cells: mouse brain proteome
T3 sequence (O35678 1-303): T2 sequence (O35678 1-303)
Experimental: [Worded in the source for another species; this species is reported under the same test.] (§1) Proteomes (human prefrontal cortex or cell membrane fractions) (50 μL, 1.0 mg/mL total protein concentration) were preincubated with varying concentrations of inhibitors at 37° C. After 30 min, FP—Rh or HT-01 (1.0 μL, 50 μM in DMSO) was added and the mixture was incubated for another 30 min at room temperature. Reactions were quenched with SDS loading buffer (15 μL-4×) and run on SDS-PAGE.

ABHD6 = target: T4, ABHD6 (Mus musculus, UniProt Q8R2Y0); test: In vitro competitive activity-based protein profiling, mouse brain proteome, ABHD6; type: biochemical; settings: mouse
T4 construct: Brain; from tissue; host or cells: mouse brain proteome
T4 sequence (Q8R2Y0 1-336): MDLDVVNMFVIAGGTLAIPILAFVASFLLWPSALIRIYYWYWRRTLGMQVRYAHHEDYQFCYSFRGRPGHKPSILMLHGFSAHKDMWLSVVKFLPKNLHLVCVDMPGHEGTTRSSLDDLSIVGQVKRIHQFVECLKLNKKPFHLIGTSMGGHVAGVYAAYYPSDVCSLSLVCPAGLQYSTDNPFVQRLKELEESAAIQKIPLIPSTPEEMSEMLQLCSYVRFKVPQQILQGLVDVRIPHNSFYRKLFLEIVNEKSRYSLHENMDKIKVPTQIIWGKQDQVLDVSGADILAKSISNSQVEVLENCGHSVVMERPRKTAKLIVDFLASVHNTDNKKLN
Experimental: [Worded in the source for another target; this target is reported under the same test.] as §1

[3] = PC3 proteome, read-out: IC50 MGLL PC3 (Human)

| pIC50 (MAGL [1]; [3]) | inhibition at 5 mg/kg (MAGL [2]) [%] | pIC50 (MGLL) | pIC50 (ABHD6) | pIC50 (MAGL [1]; PFC (prefrontal cortex) proteome, read-out: IC50 MGLL PFC (Human)) | SMILES |
| --- | --- | --- | --- | --- | --- |
| > 7.00 | ≤ 25 | > 7.00 | 6.00 to 7.00 | – | CN(Cc1ccc(C(F)(F)F)cc1N1CCOC(C(=O)O)C1)C1(C)CCN(C(=O)OC(C(F)(F)F)C(F)(F)F)CC1 (stereo not shown) [Example 108, 4-(2-(((1-(((1,1,1,3,3,3-Hexafluoropropan-2-yl)oxy)carbonyl)-4-methylpiperidin-4-yl)(methyl)amino)methyl)-5-(trifluoromethyl)phenyl)morpholine-2-carboxylic acid] |
| > 7.00 | ≥ 75 | > 7.00 | < 6.00 | – | CC(=O)N1CC2(CCN(c3ccccc3CN3CCN(C(=O)OC(C(F)(F)F)C(F)(F)F)CC3)C2)C1 [Example 168, 1,1,1,3,3,3-Hexafluoropropan-2-yl 4-(2-(2-acetyl-2,6-diazaspiro[3.4]oetan-6-yl)benzyl)piperazine-1-carboxylate] |
| > 7.00 | ≥ 75 | > 7.00 | < 6.00 | – | CS(=O)(=O)N1CCC2(CCN(c3cc(Cl)ccc3CN3CCN(C(=O)OC(C(F)(F)F)C(F)(F)F)CC3)CC2)C1 [Example 174, 1,1,1,3,3,3-Hexafluoropropan-4-(4-chloro-2-(2-(methylsulfonyl)-2,8-diazaspiro[4.5]decan-8-yl)benzyl)piperazine-1-carboxylate] |
| > 7.00 | ≥ 75 | > 7.00 | < 6.00 | – | CC(=O)N1CC2(CCN(c3cc(C(F)(F)F)ccc3CN3CCN(C(=O)OC(C(F)(F)F)C(F)(F)F)CC3)C2)C1 [Example 180, 1,1,1,3,3,3-Hexafluoropropan-2-yl 4-(2-(2-acetyl-2,6-diazaspiro[3.4]octan-6-yl)-4-(trifluoromethyl)benzyl)piperazine-1-carboxylate] |
| > 7.00 | ≤ 25 | > 7.00 | < 6.00 | – | CCN1CCC2(CCN(c3cc(C(F)(F)F)ccc3CN3CCN(C(=O)OC(C(F)(F)F)C(F)(F)F)CC3)CC2)C1 [Example 183, 1,1,1,3,3,3-Hexafluoropropan-2-yl 4-(2-(2-ethyl-2,8-diazaspiro[4.5]decan-8-yl)-4-(trifluoromethyl)benzyl)piperazine-1-carboxylate] |
| > 7.00 | ≥ 75 | > 7.00 | < 6.00 | > 7.00 | CS(=O)(=O)N1CCC2(CCN(c3cc(C(F)(F)F)ccc3CN3CCN(C(=O)OC(C(F)(F)F)C(F)(F)F)CC3)CC2)C1 [Example 185, 1,1,1,3,3,3-Hexafluoropropan-2-yl 4-(2-(2-(methylsulfonyl)-2,8-diazaspiro[4.5]decan-8-yl)-4-- (trifluoromethyl)benzyl)piperazine-1-carboxylate] |
| > 7.00 | ≥ 75 | > 7.00 | < 6.00 | – | CS(=O)(=O)N1CC2(CCN(c3cc(C(F)(F)F)ccc3CN3CCN(C(=O)OC(C(F)(F)F)C(F)(F)F)CC3)C2)C1 [Example 186, 1,1,1,3,3,3-Hexafluoropropan-2-yl 4-(2-(2-(methylsulfonyl)-2,6-diazaspiro[3.4]octan-6-yl)-4-(trifluoromethyl)benzyl)piperazine-1-carboxylate] |
| > 7.00 | ≥ 75 | > 7.00 | < 6.00 | – | CC(=O)N1CCC2(CCN(c3cc(C(F)(F)F)ccc3CN3CCN(C(=O)OC(C(F)(F)F)C(F)(F)F)CC3)CC2)C1 [Example 189, 1,1,1,3,3,3-Hexafluoropropan-2-yl 4-(2-(2-acetyl-2,8-diazaspiro[4.5]decan-8-yl)-4-(trifluoromethyl)benzyl)piperazine-1-carboxylate] |
| > 7.00 | ≥ 75 | > 7.00 | < 6.00 | – | CC(=O)N1CC2(CCN(c3cc(C(F)(F)F)ccc3CN3CCN(C(=O)OC(C(F)(F)F)C(F)(F)F)CC3)CC2)C1 [Example 216, 1,1,1,3,3,3-Hexafluoropropan-2-yl 4-(2-(2-acetyl-2,7-diazaspiro[3.5]nonan-7-yl)-4-(trifluoromethyl)benzyl)piperazine-1-carboxylate] |
